Entries after “also recorded” stand apart in the source; their conditions may differ.
How the values were obtained:
[1] = tested on: rat basilar arteries; experiment: 48 h organ culture of basilar artery, endothelium function / vasodilation (carbachol, SNP, CGRP); assay type: cell-based; conditions: 1 μM inhibitor
Method: Rats were sedated with O2/CO2 (30/70%) and sacrificed by decapitation. […] The basilar artery (BA) was carefully dissected from the brain in a physiological buffer solution followed by either OC (naïve animals) or directly mounted in a wire myograph (arteries from rats which has undergone surgical procedures). Segments were incubated for 48 hours at 37° C. in humidified 5% CO2/O2 in DMEM supplemented with streptomycin and penicillin with inhibitors or vehicle (DMSO). Culture media was changed after 24 hours.
For contractility measurements, both incubated BAs (ex vivo) and BAs after surgical procedure (in vivo) were cut into segments and mounted on a pair of metal wires (40 μm) in a myograph bath. The arteries from OC were mounted the same way after 48 hours in media. One wire was attached to a micro-meter screw which allows for fine adjustments of the distance between the wires, controlling the vascular tone.
The arterial segments were exposed two or three times with 60 mM K^+, by exchanging the buffer with a 60 mM K^+ buffer solution. To maintain equal osmolarity, a proportional amount of Na^+ had been removed from the buffer. An absolute cut-off was set at 2.0 mN K^+max for inclusion of arterial segments from rats that underwent the surgical procedure. Endothelium function was evaluated with the addition of 5-HT (3.10^−7 M) followed by carbachol (10^−5 M). For arteries from the OC the protocol was as followed: first a cumulative concentration-response curve to sarafotoxin 6C (S6c, 10^−14-10^−7 M), followed by a concentration-response curve to endothelin-1 (ET-1, 10^−14-10^−7 M). At peak ET-1 (10^−7 M), the buffer was changed to a Ca^2+-free buffer containing 10^−7 M ET-1 and nimodipine (L-type of voltage dependent Ca^2+ channel entry blocker, 10^−7 M). […] When vasodilation was investigated arteries was precontracted with U46619 (1.10^−7-3.10^−7 M) or K^+ (41 mM) and cumulative concentration-response curves was performed by adding calcitonin gene-related peptide (CGRP, 10^−12-10^−7 M), carbachol (10^−10-10^−5 M) or SNP (10^−11-10^−4 M).

[2] = Solubility (statement); assay type: physicochemical
[3] = tested on: rat subarachnoid haemorrhage model; experiment: Rotating pole test after SAH, intrathecal treatment; assay type: in vivo; conditions: SAH + i.t. treatment
Method: The intrathecal (i.t.) treatment volumes were estimated for a cerebrospinal fluid (CSF) volume of approximately 90 μL (21) and the total dose was administered as three treatments (4 hours, 10 hours and 24 hours) through the PinPort in the ICP catheter placed in the cisterna magna during the surgical procedure. The first and third injections were given under fixation of the rat. Since the treatment 10 hours post-surgery was administered by a single researcher, the rats were briefly anaesthetised with isoflurane 3.5-4% (maintained at 1.75-2%) in atmospheric air/O2 (70%/30%) using a facemask, to prevent sudden movements of the rat. […]
Gross sensorimotor function was evaluated using a rotating pole test, including a baseline evaluation on the day before induction of SAH. Briefly, movement across a 10-rpm rotating pole (45 mm diameter, 150 cm length) was evaluated with a cage at the end that contain the rat's own bedding material (“smells like home”). Rat performance was scored according to the following definitions: Low, the animal is unable to cross the pole without falling off; High, the animal can traverse the entire pole without falling off. […] Pre-SAH and on day 1 and 2 after surgery, each animal was scored twice for left and right rotation respectively, i.e. 4 counts per animal. […]

CC(=O)Nc1cccc(-n2c(=O)n(C3CC3)c(=O)c3c(Nc4ccc(I)cc4F)n(C)c(=O)c(C)c32)c1 [trametinib]
Emax following NO donor sodium nitroprusside (SNP) ([1]; 48 h OC): significant differences in the Emax
response to CGRP ([1]; 48 h OC): No differences
vasodilation in response to carbachol (10^-10-10^-5 M) ([1]; 48 h OC, precontracted with U46619 or K+): improved vasodilation
endothelium function (10-5 M carbachol on arteries precontracted with 5-HT) vs DMSO ([1]; 48 h organ culture): significant better endothelium function; also recorded: significant increase
solubility [2]: excellent solubility
neurological assessment scores (rotating pole test) [3]: Improved neurological assessment scores
rotating pole Score48 h (% high score count/total score count) ([3]; 48 hours post-SAH, 10 rpm): 96%

Reference: US20220273660A1, “MEK INHIBITOR FOR TREATMENT OF STROKE” (EDVINCE AB, priority 2019, published 2022)
